We go through eight compounds from patent publication US20200404919A1, “USE OF HETEROARYL-TRIAZOLE AND HETEROARYL-TETRAZOLE COMPOUNDS AS PESTICIDES IN PLANT PROTECTION” (Bayer Aktiengesellschaft, priority 2018, published 2020).

Common to all, as to assay type: in vivo
For test [1], the system named is Myzus persicae. Kind of test: Myzus persicae - spray test. The settings on record: foliar, 120 h, Chinese cabbage leaf disks, all instars, after 5 days. As to the method:
Myzus persicae—Spray Test
(§1) To produce a suitable preparation of active compound, 1 part by weight of active compound is mixed with the stated amount of solvents and is diluted with water, containing an emulsifier concentration of 1000 ppm, to the desired concentration. Further test concentrations are prepared by dilution with emulsifier containing water.
Chinese cabbage (Brassica pekinensis) leaf disks infected with all instars of the green peach aphid (Myzus persicae), are sprayed with a preparation of the active ingredient of the desired concentration.
After 5 days mortality in % is determined. 100% means all aphids have been killed and 0% means none of the aphids have been killed.

For a further test, the system named is Diabrotica balteata. The test can be described thus: Diabrotica balteata - spray test. The settings on record: 168 h, 160 μg/well, germinated wheat seeds, larvae, after 7 days, read-out: efficacy in %. An outline of the steps:
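Wheat seeds germinated 1 day on agar were sprayed with compound diluted in water with 1000 ppm emulsifier, then infested with 10-20 Diabrotica balteata larvae. Efficacy in % scored after 7 days: 100% = seedlings grown as untreated, uninfected control; 0% = no seedlings grown.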

Test [2] deals with Nezara viridula. The test can be described thus: Nezara viridula - spray test 1. The settings on record: in Hordeum vulgare, 96 h, read-out: mortality in %. In a few lines: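 Barley plants carrying southern green stink bug larvae were sprayed with compound diluted in water with 1000 ppm emulsifier. Mortality (%) was scored after 4 days.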
For test [3], the system named is Nilaparvata lugens. Kind of test: Nilaparvata lugens - spray test 1. The settings on record: in Oryza sativa, 96 h, read-out: mortality in %, 500 g/ha, rice plants, after 4 days. An outline of the steps:
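Rice plants (Oryza sativa) were sprayed with the compound preparation in water containing 1000 ppm emulsifier, then infested with brown planthoppers. Percent mortality scored after 4 days (100% = all killed, 0% = none).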

Another test relates to Phaedon cochleariae. The test can be described thus: Phaedon cochleariae - spray test. The settings on record: in Brassica rapa, foliar, 168 h, read-out: mortality in %. An outline of the steps:
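Chinese cabbage leaf disks sprayed with compound diluted in water containing 1000 ppm emulsifier, then infested with mustard beetle larvae once dry. Mortality in % scored after 7 days (100% = all larvae killed, 0% = none).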

The subject of the next test is Spodoptera frugiperda. The test can be described thus: Spodoptera frugiperda - spray test. The settings on record: in Zea mays, 168 h, read-out: mortality in %. An outline of the steps:
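Caterpillars are placed on sprayed, dried maize leaf sections. Sprays contain compound diluted in water with emulsifier at 1000 ppm; mortality in % is determined 7 days later.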

For test [4], the system named is Myzus persicae. Kind of test: Myzus persicae - oral test. The settings on record: 120 h, read-out: mortality in %. An outline of the steps: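 Mixed-population green peach aphids fed through parafilm on compound diluted in water plus IPL41 insect medium (33%+15% sugar). Mortality (%) scored after 5 days, 100% meaning all aphids killed.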
Another test concerns Aphis gossypii. The test can be described thus: Aphis gossypii - oral test. The settings on record: 120 h, read-out: mortality in %. In a few lines:
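Mixed-population cotton aphids feed through parafilm on compound (acetone stock diluted in water) mixed with IPL41 insect medium containing sugar. Mortality (%) scored after 5 days.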

For test [5], the system named is Nezara viridula. Kind of test: Nezara viridula - spray test 2. The settings on record: 96 h, barley plants, larvae, after 4 days. As to the method:
Nezara viridula—Spray Test 2
To produce a suitable preparation of active compound, 1 part by weight of active compound is mixed with the stated amount of solvent, and the concentrate is diluted with water, containing an emulsifier concentration of 1000 ppm, to the desired concentration. Ammonium salt and/or penetration enhancer in a dosage of 1000 ppm are added to the desired concentration if necessary.
Barley plants (Hordeum vulgare) infested with larvae of the southern green stink bug (Nezara viridula) are sprayed with a test solution containing the desired concentration of the active ingredient.
After 4 days mortality in % is determined. 100% means all the stink bugs have been killed; 0% means none of the stink bugs have been killed.

The subject of test [6] is Nilaparvata lugens. Kind of test: Nilaparvata lugens - spray test 2. The settings on record: 96 h, rice plants, larvae, after 4 days. As to the method:
Nilaparvata lugens —Spray Test 2
To produce a suitable preparation of active compound, 1 part by weight of active compound is mixed with the stated amount of solvents and is diluted with water, containing an emulsifier concentration of 1000 ppm, to the desired concentration. Further test concentrations are prepared by dilution with emulsifier containing water. Ammonium salt and/or penetration enhancer in a dosage of 1000 ppm are added to the desired concentration if necessary.
Rice plants (Oryza sativa) are treated by being sprayed with the desired concentration of the active compound and are infested with larvae of the brown planthopper (Nilaparvata lugens).
After 4 days mortality in % is determined. 100% means all planthoppers have been killed and 0% means none of the planthoppers have been killed.

A further test relates to Culex quinquefasciatus. Kind of test: Culex test (CULXFAS surface treatment & contact assay). The settings on record: 30 minutes exposure, 24 hours after contact, read-out: efficacy (mortality in percent); for mortality at 4 mg/m2: surface concentration 4 mg/m^2, glazed tile; for mortality at 20 mg/m2: surface concentration 20 mg/m^2, glazed tile; for mortality at 100 mg/m2: surface concentration 100 mg/m^2, glazed tile. In a few lines:
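Test compound dissolved in acetone + 2000 ppm rapeseed oil methyl ester, applied to glazed tile and acetone evaporated; adult mosquitoes exposed on dried surface for 30 minutes. Mortality (%) scored 24 hours after contact; 100% = all insects dead, 0% = none dead.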

Test [7] has as its system Anopheles funestus strain FUMOZ-R. The test can be described thus: Anopheles test (ANPHFU surface treatment & contact assay). The settings on record: 30 minutes exposure, 24 hours after contact, read-out: efficacy (mortality in percent); for mortality at 4 mg/m2: surface concentration 4 mg/m^2, glazed tile; for mortality at 20 mg/m2: surface concentration 20 mg/m^2, glazed tile; for mortality at 100 mg/m2: surface concentration 100 mg/m^2, glazed tile. The text has this:
Anopheles Test (ANPHFU Surface Treatment & Contact Assay)
Solvent: Acetone+2000 ppm rapeseed oil methyl ester (RME)
In order to produce a sufficient, active ingredient containing solution it is necessary to solve the test-compound in an acetone/RME solvent mixture. This solution is pipetted onto a glazed tile and after evaporation of the acetone, adult mosquitoes of the species Anopheles funestus strain FUMOZ-R (Hunt et al., Med Vet Entomol. 2005 Sep. 19(3):271-5) are placed onto the dried surface. The exposure time is 30 minutes.
Mortality in percent (%) is determined 24 hours after contact to the treated surface. 100% mortality means that all test-insects are dead, whereas 0% means that not a single insect died.

Test [8] has as its system Aedes aegypti strain MONHEIM. The test can be described thus: Aedes test (AEDSAE surface treatment & contact assay). The settings on record: 30 minutes exposure, 24 hours after contact, read-out: efficacy (mortality in percent); for mortality at 4 mg/m2: surface concentration 4 mg/m^2, glazed tile; for mortality at 20 mg/m2: surface concentration 20 mg/m^2, glazed tile; for mortality at 100 mg/m2: surface concentration 100 mg/m^2, glazed tile. An outline of the steps:
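Compound in acetone plus 2000 ppm RME applied to glazed tile; after acetone evaporation, adult mosquitoes held on dried surface for 30 minutes. Percent mortality scored 24 hours after contact.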

Test [9] relates to Musca domestica strain WHO-N. Kind of test: Musca domestica test (MUSCDO surface treatment & contact assay). The settings on record: 30 minutes exposure, 24 hours after contact, read-out: efficacy (mortality in percent). An outline of the steps: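 Compound in acetone with 2000 ppm rapeseed oil methyl ester applied to glazed tile; after acetone evaporation, adult Musca domestica WHO-N flies exposed on dried surface for 30 minutes. Mortality (%) assessed 24 hours after contact.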

The subject of the next test is Tetranychus urticae. Kind of test: Tetranychus urticae - spray test OP-resistant. The settings on record: foliar, 144 h, French bean leaf disks, all instars, after 6 days. As to the method:
Tetranychus urticae—Spray Test OP-Resistant
as §1
French bean (Phaseolus vulgaris) leaf disks infected with all instars of the two spotted spidermite (Tetranychus urticae), are sprayed with a preparation of the active ingredient of the desired concentration.
After 6 days mortality in % is determined. 100% means all spider mites have been killed and 0% means none of the spider mites have been killed.

For the next test, the system named is Meloidogyne incognita. Kind of test: Meloidogyne incognita - test. The settings on record: 336 h, salad seedlings in sand, after 14 days, read-out: nematicidal activity (percentage of gall formation). An outline of the steps: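 Compound taken up in acetone and diluted with water, then applied to sand with M. incognita eggs and larvae plus salad seeds. Gall formation on roots scored after 14 days: 100% means no galls, 0% equals untreated control.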

For the compound `C[C@H](NC(=O)c1cncc(Br)c1)c1ncnn1-c1ncccn1` [Compound I-134], the mortality at 500 g/ha was 90% in the test on Myzus persicae [1], 100% with Nezara viridula [2] and 100% with Nilaparvata lugens [3]. The pest or weed control at 160 µg/disc, 160 µg/well in the test on Diabrotica balteata was found to be 100%.
Take `CC(c1ncnn1-c1ncccn1)N(CC1CC1)C(=O)c1cc(Cl)cc(C(F)(F)F)c1` (centres unmarked) [Compound I-40, 3-chloro-N-(cyclopropylmethyl)-N-[1-(2-pyrimidin-2-yl-1,2,4-triazol-3-yl)ethyl]-5-(trifluoromethyl)benzamide]: the mortality at 500 g/ha in the test on Phaedon cochleariae was 100%; in the test with Spodoptera frugiperda it was 100%; in the test with Myzus persicae [1], 90%; in the test on Nezara viridula [2], 100%; with Nilaparvata lugens [3], 100%; in the test with Nezara viridula [5], 100%. The compound further registered a mortality at 500 g/ha in the test on Nilaparvata lugens [6] of 100%. The mortality at 20 ppm in the test with Myzus persicae [4] was 100%. For the same compound, the mortality at 100 ppm with Aphis gossypii turned out to be 100%. Besides, the pest or weed control at 160 µg/disc, 160 µg/well with Diabrotica balteata amounted to 100%.
As for `C[C@H](NC(=O)c1cc(Cl)cc(C(F)(F)F)c1)c1ncnn1-c1ncccn1` [Compound I-113, 3-chloro-N-[(1S)-1-(2-pyrimidin-2-yl-1,2,4-triazol-3-yl)ethyl]-5-(trifluoromethyl)benzamide], the mortality at 500 g/ha in the test on Phaedon cochleariae, in the test with Spodoptera frugiperda, in the test on Nezara viridula [2] and in the test on Nilaparvata lugens [3] was 100% throughout. Besides, the mortality at 20 ppm with Myzus persicae [4] stood at 100%. Moreover, the mortality at 100 ppm with Aphis gossypii stood at 100%. The pest or weed control at 160 µg/disc, 160 µg/well with Diabrotica balteata was 100%. Also, the mortality at 4 mg/m2 in the test with Culex quinquefasciatus lay within 80 to 100%; in [7] it was 80 to 100%; in [8], 80 to 100%; in [9] (surface concentration 4 mg/m^2, glazed tile), 80 to 100%. For the same compound, the mortality at 20 mg/m2 with Culex quinquefasciatus is 80 to 100%; in [7] it was 80 to 100%; in [8], 80 to 100%; in test [9] (surface concentration 20 mg/m^2, glazed tile), 80 to 100%. Moreover, the mortality at 100 mg/m2 (with Culex quinquefasciatus; in test [7]; in test [8]) was 80 to 100% throughout.
For `CC(NC(=O)c1cc(Cl)cc(C(F)(F)F)c1)c1ncnn1-c1ncccn1` (centres unmarked) [Compound I-76], the mortality at 500 g/ha in the test with Phaedon cochleariae, in the test with Spodoptera frugiperda, with Nezara viridula [2], in the test on Nilaparvata lugens [3], in the test with Nezara viridula [5] and in the test on Nilaparvata lugens [6] was 100% in each case. In addition, the mortality at 20 ppm in the test with Myzus persicae [4] came to 100%. Also, the mortality at 100 ppm with Aphis gossypii is 100%. In the test with Diabrotica balteata, the pest or weed control at 160 µg/disc, 160 µg/well was found to be 100%.
For `CC(NC(=O)c1cc(Cl)cc(Cl)c1)c1ncnn1-c1ncccn1` (centres unmarked) [Compound I-124], the mortality at 500 g/ha in the test on Spodoptera frugiperda is 100%; with Myzus persicae [1], 90%; in the test with Nezara viridula [2], 100%; with Nilaparvata lugens [3], 90%.
Consider `CC(c1ncnn1-c1ncccn1)N(CC(F)F)C(=O)c1cccc(C(F)(F)F)c1` (centres unmarked) [Compound I-123], for which the mortality at 500 g/ha turned out to be 100% with Spodoptera frugiperda; 90% with Myzus persicae [1]; 100% in the test with Tetranychus urticae; 100% with Nezara viridula [2]; 100% in the test on Nilaparvata lugens [3].
In the case of `C[C@@H](c1ncnn1-c1ncccn1)N(CC1CC1)C(=O)c1cc(Cl)cc(C(F)(F)F)c1` [Compound I-93, 3-chloro-N-(cyclopropylmethyl)-N-[(1S)-1-(2-pyrimidin-2-yl-1,2,4-triazol-3-yl)ethyl]-5-(trifluoromethyl)benzamide], the mortality at 500 g/ha with Phaedon cochleariae, with Spodoptera frugiperda, with Myzus persicae [1], in the test on Nilaparvata lugens [3], with Nezara viridula [5] and in the test on Nilaparvata lugens [6] was 100% each time. Moreover, in the test on Myzus persicae [4], the mortality at 20 ppm was determined as 100%. Moreover, the mortality at 100 ppm with Aphis gossypii amounted to 100%. In the test on Diabrotica balteata, the pest or weed control at 160 µg/disc, 160 µg/well was 100%. Also, the pest or weed control at 20 ppm in the test on Meloidogyne incognita amounted to 100%. Further, the mortality at 4 mg/m2 (with Culex quinquefasciatus; in test [7]; in [8]) was 80 to 100% throughout. Besides, the mortality at 20 mg/m2 (in the test on Culex quinquefasciatus; in test [7]; in [8]) was 80 to 100% in each case. Besides, the mortality at 100 mg/m2 (in the test with Culex quinquefasciatus; in test [7]; in test [8]) was 80 to 100% each time.
On to `CC(c1ncnn1-c1ncccn1)N(CC#N)C(=O)c1cc(Cl)cc(C(F)(F)F)c1` (centres unmarked) [Compound I-96], for which the mortality at 500 g/ha in the test on Spodoptera frugiperda came out at 100%; in the test on Myzus persicae [1] it was 90%; in the test with Tetranychus urticae it was 90%; with Nezara viridula [2], 100%; in the test with Nilaparvata lugens [3] it was 100%.
